Laboratory results as given in PMC7160673, “A Degenerate Peptide Library Approach to Reveal Sequence Determinants of Methyllysine-Driven Protein Interactions” (Frontiers in Cell and Developmental Biology, 2020).
Where no end group is shown, it is not given here. Me2a = asymmetric dimethyl on Arg; Peg = not defined here

Columns and labels:
Format in all cases: binding
[1] = tested on: ABClonal #A2355, anti-H3K4me1; assay: Histone peptide microarray, ABclonal A2355; conditions: Abclonal A2355 (anti-H3K4me1) hits
Method: (§1) Peptide microarrays were fabricated using an Aushon 2470 microarrayer and used as described ([Cornett et al., 2017]) with the following modifications. Protein and antibody hybridization steps were performed in buffer containing 25 mM HEPES pH 7.5, 100 mM NaCl, 0.5% BSA (w/v), and 0.1% NP-40. Slides were washed 3 × 5 min in PBS supplemented with 0.1% Tween-20 between each hybridization step. Antibodies used were primary anti-GST (Sigma #7781, 1:2,000 dilution) and an AlexaFluor 647-labeled secondary antibody (Life Technologies A-21245, 1:5,000 dilution). […] Full lists of peptides queried by array analysis are in Supplementary Table S2.

[2] = tested on: Millipore #07-449, anti-H3K27me3; assay: Histone peptide microarray, Millipore 07-449; conditions: Millipore 07-449 (anti-H3K27me3) hits, average signal per peptide
[3] = tested on: Active Motif #39161, anti-H3K9me3; assay: Histone peptide microarray, Active Motif 39161; conditions: Active Motif 39161 (anti-H3K9me3) hits
CST 9733 (anti-H3K27me3) = assay: Histone peptide microarray, CST 9733; conditions: histone peptide array signal normalized to the highest peptide average per subarray, hits; CST 9733 LOT:14 dilution 1:5,000
Method: as §1

[4] = tested on: Abcam #ab8895, anti-H3K4me1; assay: Histone peptide microarray, Abcam ab8895; conditions: Abcam ab8895 (anti-H3K4me1) hits, average signal per peptide
53BP1 TTD = assay: Histone peptide microarray, 53BP1 TTD; conditions: 53BP1 TTD hits, average signal per peptide
Method in brief: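 Printed histone peptide arrays; hybridization buffer 25 mM HEPES pH 7.5 / 100 mM NaCl / 0.5% BSA / 0.1% NP-40. Washes PBS + 0.1% Tween-20, 3 × 5 min per step. Detection: anti-GST 1:2,000 → AlexaFluor 647 secondary 1:5,000.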

Substance | Avg Signal [1] | Avg Signal [2] | Avg Signal [3] | Avg Signal (CST 9733 (anti-H3K27me3)) | Avg Signal [4] | Avg Signal (53BP1 TTD)
Ac-APRKQLAT-NleAARKSAPS-Peg-Biot [Peptide H3.3K23-Nle] | 0.0003163 | 0.001042 | 0.003975 | 0.0003783 |  | 
Ac-APRK(Ac)QLATK(Ac)AARK(Ac)pSAPSTGG-Peg-Biot [H3.3K18acK23acK27acS28p] | 0.0001631 | 0.0009622 | 0.004946 |  |  | 
ARTK(Me2)QTARK(Ac)STGGK(Ac)APRK(Ac)QL-K(Biot)-NH2 [H3.1K4me2K9acK14acK18ac] | 0.4093 | 0.02042 |  |  | 0.4999 | 0.5398
ARTK(Me)QTARKSTGGKAPRKQL-K(Biot)-NH2 [Peptide H3.1K4me1] | 0.7621 |  |  |  | 0.89 | 0.08871
ARTK(Me2)QTARK(Ac)STGGKAPRK(Ac)QL-K(Biot)-NH2 [H3.1K4me2K9acK18ac] | 0.4042 |  | 0.009454 |  | 0.4062 | 0.5101
Ac-APRKQLATKAARK(Me2)pSAPSTGG-Peg-Biot [H3.3K27me2S28p] | 0.002617 | 0.003767 | 0.009021 | 0.004223 |  | 
Ac-SGRGKGGKGLGKGGAK(Ac)RHRKVLR-Peg-Biot [Peptide H4K16ac] | 0.00197 | 0.001899 |  |  | 0.0007834 | 0.07097
Ac-SGRGK(Ac)QGGKARAKAKTR-Peg-Biot [Peptide H2AK5ac] | 0.0257 |  |  |  | 0.04469 | 0.06555
ARTK(N3)QTARKSTGGKAPRKQL-K(Biot)-NH2 [Peptide H3.1K4N3] | 0.03523 |  |  |  | 0.03034 | 0.07618
ATKAARKSAPATGGVK(Ac)KPHRYRPG-GK(Biotin)-OH [Peptide H3.1K36ac] | 0.001664 | 0.004604 | 0.009457 |  |  | 
Biot-Peg-GKKATQApSQEY-OH [Peptide H2A.XS139p] | 0.02695 | 0.0003137 |  |  | 0.05956 | 
ARTKQTARK(Ac)STGGK(Ac)APRK(Ac)QL-K(Biot)-NH2 [H3.1K9acK14acK18ac] | 0.01044 |  | 0.001438 |  | 0.2691 | 0.1031
AR(Me2a)TK(Me2)QTARKSTGGKAPRKQL-K(Biot)-NH2 [H3.1R2me2aK4me2] | 0.325 | 0.008316 | 0.0008405 |  | 0.2655 | 0.2614
ARTK(Me2)QTARKSTGGKAPRKQL-K(Biot)-NH2 [Peptide H3.1K4me2] | 0.3078 |  | 0.001961 |  | 0.3093 | 0.3009
Ac-APRKQLATK(Me)AARKSAPATGG-Peg-K(Biot)-NH2 [Peptide H3.1K23me1] | 0.3577 | 0.003618 | 0.004448 |  | 0.124 | 
KSAPSpTGGVK(Me)KPHRYRPGT-G-K(Biot)-NH2 [H3.3K36meT32p] | 0.00279 | 0.0077 | 0.00231 | 0.002226 | 0.005437 | 
ATKAARKSAPATGGVK(Me)KPHRYRPG-GK(Biotin)-OH [Peptide H3.1K36me1] | 0.006039 | 0.002073 | 0.001641 |  | 0.0206 | 
ARTKQTAR(Me2a)KSTGGKAPRKQL-Peg-Biot (chain 2 KSTGGKAPRKQL-{Peg-Biot}; not fully specified; reading uncertain) [Peptide H3.1R8me2a] | 0.000963 |  | 0.01209 |  | 0.06138 | 
Ac-SGRGQGGQGLGK(Ac)GGAQRHRQVLR-Peg-Biot [H4K12acK5QK8QK16QK20Q] | 0.0006964 | 0.0006189 | 0.02202 | 0.0003661 | 0.02356 | 
AR(Me2a)pTK(Me3)QTARKSTGGKAPRKQL-K(Biot)-NH2 [H3.1R2me2aT3pK4me3] | 0.002084 | 0.007597 |  |  | 0.001405 | 0.03111

Substance | Avg Signal [1] | Avg Signal [2] | Avg Signal [3] | Avg Signal (CST 9733 (anti-H3K27me3)) | Avg Signal [4] | Avg Signal (53BP1 TTD)
Ac-SGRGK(Ac)GGKGLGK(Ac)GGAKRHRKVLR-Peg-Biot [Peptide H4K5acK12ac] | 0.01286 | 0.01271 | 0.02456 |  | 0.0343 | 0.08013
ARTK(Ac)QTARKSTGGK(Ac)APRK(Ac)QL-K(Biot)-NH2 [H3.1K4acK14acK18ac] | 0.005007 | 0.004978 |  |  | 0.001503 | 0.1071
Ac-SGRGK(Me)GGKGLGKGGAKRHRKVLR-Peg-Biot [Peptide H4K5me1] | 0.006523 | 0.002242 | 0.04055 |  | 0.01832 | 
Ac-SGRGK(Ac)GGKGLGKGGAKRHRK(Ac)VLR-Peg-Biot [Peptide H4K5acK20ac] | 0.0007556 |  | 0.0005946 |  |  | 
Ac-SGRGK(Ac)GGK(Me)GLGK(Ac)GGAKRHRKVLR-Peg-Biot [H4K5acK8me1K12ac] | 0.01786 | 0.005126 | 0.01545 |  | 0.003463 | 
AR(Me2a)TKQTARKSTGGKAPRKQL-K(Biot)-NH2 [Peptide H3.1R2me2a] | 0.0139 | 0.004979 | 0.00368 |  | 0.1119 | 0.05357
ARTK(Me)QTARK(Ac)STGGKAPRK(Ac)QL-K(Biot)-NH2 [H3.1K4me1K9acK18ac] | 0.6625 |  | 0.0008903 |  | 0.7729 | 0.06582
Ac-SGRGK(Ac)GGK(Me)GLGK(Ac)GGAK(Ac)RHRKVLR-Peg-Biot [H4K5acK8me1K12acK16ac] | 0.003516 |  | 0.001214 | 7.434e-5 | 0.006645 | 
Ac-SGRGK(Ac)QGGK(Ac)ARAK(Ac)AK(Ac)TR-Peg-Biot [H2AK5acK9acK13acK15ac] | 0.0056 | 0.001671 | 0.005245 |  |  | 0.0113
H3.1.1(1-32) | 0.04529 | 0.003069 |  |  | 0.3398 | 
Ac-IAQDFK(Me2)TDLRF-Peg-K(Biot)-NH2 [Peptide H3.1K79me2] | 0.0001532 | 0.002961 |  |  |  | 0.2119
ARTKQTARK(Me2)STGGKAPRKQLATKAARK(Me)SAPAT-Peg-Biot [H3.1K9me2K27me1] | 0.05183 | 0.004141 | 0.02404 |  | 0.3474 | 
ARTK(Me3)QTARKSTGGK(Ac)APRKQL-K(Biot)-NH2 [H3.1K4me3K14ac] |  | 0.02658 | 0.009793 | 0.004624 | 0.0003256 | 0.1175
ARTK(Ac)QTARKSTGGKAPRK(Ac)QL-K(Biot)-NH2 [H3.1K4acK18ac] | 0.001249 |  | 0.0001961 |  | 0.002862 | 0.07704
PEPAKSAPAPKK(Ac)GSK(Ac)K(Ac)AVTK(Ac)AQKK-Peg-Biot [H2BK12acK15acK16acK20ac] | 0.0003507 |  | 0.009853 |  |  | 
ATKAARKSAPATGGVK(Me2)KPHRYRPG-GK(Biotin)-OH [Peptide H3.1K36me2] | 0.06205 | 0.005826 | 0.01273 |  | 0.1144 | 
Ac-IAQDFK(Me3)TDLRF-Peg-K(Biot)-NH2 [Peptide H3.1K79me3] | 0.03778 |  |  |  | 0.06064 | 0.03452
ARTK(Me)QTARKSTGGKAPRK(Ac)QL-Peg-Biot [H3.1K4me1K18ac] | 0.5708 | 0.002272 |  | 1.355e-5 | 0.7343 | 
ARTK(Me)QTARK(Ac)STGGK(Ac)APRK(Ac)QL-K(Biot)-NH2 [H3.1K4me1K9acK14acK18ac] | 0.8066 |  | 0.005174 |  | 0.9702 | 0.194
Ac-SGRGKGGK(Me)GLGKGGAKRHRKVLR-Peg-Biot [Peptide H4K8me1] | 0.02626 |  | 0.0007159 |  | 0.01379 | 
